Results published in publication PMC9908594, “Biochemical characterization and identification of ferulenol and embelin as potent inhibitors of malate:quinone oxidoreductase from Campylobacter jejuni” (Frontiers in Molecular Biosciences, 2023).
Where “and” joins values, the source holds several entries; their conditions need not be identical. Equal entries are not always repeated. Where two headings read alike, the source gives them in different places.

Columns and labels:
C. jejuni ATCC29428 = test: C. jejuni growth inhibition, resazurin assay; format: cell-based, Campylobacter jejuni; details: for IC50: Mueller Hinton broth, 24 h, microaerophilic, 37°C, resazurin
[1] = target: CjMQO (malate:quinone oxidoreductase from C. jejuni) (Campylobacter jejuni, UniProt P56954); test: biochemical; format: biochemical; details: 50 mM MOPS pH 7.0, 100 μM UQ1, 1 mM KCN, 0.2 μg/mL CjMQO, 10 mM malate; read-out: IC50 on purified CjMQO
CjMQO [2] = target: T1, CjMQO (Campylobacter jejuni, UniProt P56954); test: Inhibition mechanism of CjMQO (mixed-model fit, Lineweaver-Burk); format: biochemical; details: for K i versus UQ1: malate fixed (10 mM); for Inhibition type versus UQ1 (quinone): NC: noncompetitive; for K i versus malate: UQ1 fixed (50 μM)
Experimental: The inhibition mechanism of the two compounds were investigated as described in a previous study ([Acharjee et al., 2021]). First, the inhibition mechanism versus UQ1 was assayed separately in a reaction mixture containing 50 mM MOPS pH 7.0, 1 mM KCN and 0.2 μg/mL of purified CjMQO containing a range of different ferulenol (0, 0.01, 0.02, and 0.04 μM) and embelin (0, 0.05, 0.1, and 0.15 μM) concentrations. Enzyme activity was measured at varying concentrations of UQ1 (5, 10, 20, 50, and 100 μM) and the reaction was initiated with 10 mM malate. Second, the inhibition mechanism versus malate was determined at 50 μM of UQ1, and the reaction was initiated with varying concentrations of malate (5, 10, 15, and 20 mM) and monitored at 278 nm, in singlets. The steady-state kinetics parameters, in the presence of inhibitors, were used to produce the Lineweaver-Burk plot. Next, the data were fitted to a mixed-type inhibition equation by a nonlinear-regression method using GraphPad Prism software. The intercept and slope from the primary plot (Lineweaver-Burk plot), were replotted as a function of the inhibitor. Finally, additional analysis was performed based on Dixon and Cornish Bowden plots in addition to the plot of Lineweaver-Burk to differentiate the types of inhibition mechanisms.

human fibroblasts = test system: human fibroblasts; design: method as in Feresin et al., 2003; details: ref Feresin et al., 2003, read-out: Toxic concentration IC50; cited from earlier work
[3] = test system: Panc-1 (pancreatic cancer-derived); design: method as in Hartuti et al., 2018; details: ref Hartuti et al., 2018, read-out: Cytotoxicity IC50; cited from earlier work
TgMQO [4] = test system: TgMQO; design: method as in Acharjee et al., 2021; details: previously reported; ref Acharjee et al., 2021; cited from earlier work
[5] = target: PfMQO (P. falciparum MQO) (Plasmodium falciparum, UniProt C6KT09); design: method as in Hartuti et al., 2018; details: previously reported; ref Hartuti et al., 2018; cited from earlier work
Sequence of PfMQO (P. falciparum MQO) (C6KT09 entry or part of it): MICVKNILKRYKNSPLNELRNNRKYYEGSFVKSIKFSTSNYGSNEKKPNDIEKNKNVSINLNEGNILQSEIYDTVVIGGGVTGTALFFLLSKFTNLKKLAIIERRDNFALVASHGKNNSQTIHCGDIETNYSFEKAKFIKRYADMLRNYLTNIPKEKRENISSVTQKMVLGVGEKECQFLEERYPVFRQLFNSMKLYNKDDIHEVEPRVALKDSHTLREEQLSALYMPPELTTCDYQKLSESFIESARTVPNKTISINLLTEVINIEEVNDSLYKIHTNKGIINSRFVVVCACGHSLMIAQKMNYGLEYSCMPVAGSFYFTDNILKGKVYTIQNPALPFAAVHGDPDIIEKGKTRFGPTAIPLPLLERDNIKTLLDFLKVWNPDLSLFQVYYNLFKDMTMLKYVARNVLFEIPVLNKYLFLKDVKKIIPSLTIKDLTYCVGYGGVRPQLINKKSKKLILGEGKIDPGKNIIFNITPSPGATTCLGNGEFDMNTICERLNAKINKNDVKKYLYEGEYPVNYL

human dermal fibroblast = test system: human dermal fibroblast; design: method as in Hartuti et al., 2018; details: ref Hartuti et al., 2018, read-out: Cytotoxicity IC50; cited from earlier work
[6] = test system: DLD-1 (colon cancer-derived); design: method as in Hartuti et al., 2018; details: ref Hartuti et al., 2018, read-out: Cytotoxicity IC50; cited from earlier work
PfMQO = test system: PfMQO; design: method as in Hartuti et al., 2018; details: for dUQ; ref Hartuti et al., 2018; cited from earlier work
CjMQO [7] = target: T1, CjMQO; test: Steady-state kinetics of purified CjMQO for substrates; format: biochemical; details: for K m for malate: malate varied; for V max / k cat / k cat /K m / K m for ubiquinone: UQ varied, malate fixed 10 mM; for K m for ubiquinone: pH 7.0, 37°C
Experimental: (§1) The steady-state kinetic parameters of CjMQO were determined for malate and ubiquinone (UQ) with different side chain length (UQ0, UQ1, UQ2, UQ4, and dUQ; Supplementary Figure S3). The reaction mixture contained UQ, 1% (v/v) ethanol, 50 mM MOPS, 1 mM KCN and 0.2 μg/mL of purified CjMQO at the optimal pH (pH 7.0) and physiological temperature (37°C). The reduction of quinones was measured through the decrease in the absorbance at 278 nm ( ε278= 15 mM^-1 cm^-1). The Michaelis constant (K m) and maximum velocity (V max) of CjMQO for UQs were determined by varying the concentrations of UQs from 0.1 to 100 μM with the malate concentration fixed at 10 mM.
(§2) Next, K m and V max of CjMQO for malate were determined by varying the concentrations from 0.5 to 50 mM at fixed concentrations of different UQs (100 μM for UQ0 and UQ1 and 10 μM for dUQ and UQ2). The apparent steady-state kinetic parameters were calculated by Michaelis-Menten equation using GraphPad Prism software (ver. 9.3.1, GraphPad Software, Inc., San Diego, California, United States). Following the protocol previously described for TgMQO ([Acharjee et al., 2021]), the reaction mechanism of CjMQO was analysed using malate and UQ1 as substrates. Briefly, CjMQO activity was measured at different UQ1 concentrations (2, 5, 10, 20, and 50 μM) with malate concentrations fixed at 0.5, 2, and 5 mM; the data were then analysed using a double reciprocal plot (Lineweaver-Burk plot) produced by utilizing intercept and slope calculated from steady-state kinetics parameters obtained by fitting the data to Michalis-Menten equation with GraphPad Prism software. The type of reaction mechanism was determined based on the characteristics of the lines plotted in the double reciprocal plot.

TgMQO [8] = test system: TgMQO; design: method as in Acharjee et al., 2021; details: ref Acharjee et al., 2021, cited from earlier work
[9] = substrate: COC1=C(OC)C(=O)C(CC=C(C)C)=C(C)C1=O; test: Steady-state kinetics of purified CjMQO for substrates; format: biochemical; details: pH 7.0, 37.0 °C
Experimental: as §1, §2

[10] = substrate: O=C(O)CC(O)C(=O)O; test: as above; format: biochemical; details: other: malate varied, pH 7.0, 37.0 °C
Experimental: as §1, §2

[11] = substrate: CCCCCCCCCCC1=C(C)C(=O)C(OC)=C(OC)C1=O; test: as above; format: biochemical; details: other: UQ varied, malate fixed 10 mM; pH 7.0; 37.0 °C
Experimental: as §1, §2

[12] = other: UQ varied, malate fixed 10 mM

## CCCCCCCCCCCC1=C(O)C(=O)C=C(O)C1=O [Embelin, 2,5-dihydroxy-3-undecyl-p-benzoquinone]
C. jejuni ATCC29428; Campylobacter jejuni, ATCC29428
  IC50: 21000 nM
C. jejuni ATCC29428; at a concentration of 100 μM
  Inhibition of growth of C. jejuni ATCC29428: completely inhibited
[1]
  IC50: 87 nM
CjMQO [2]; UQ1 varied, malate fixed
  K m (apparent, mixed-model fit): 47 ± 6.3 µM
  V max (apparent, mixed-model fit): 164 ± 11 µmol/min/mg
  α versus UQ1 (quinone): 0.998
  Inhibition type versus UQ1 (quinone): noncompetitive
CjMQO [2]; UQ1 varied
  K i versus UQ1: 140 nM
CjMQO [2]; malate varied, UQ1 fixed
  Inhibition type versus malate: Mixed
  K m (apparent, mixed-model fit): 2,225 ± 292 μM
  V max (apparent, mixed-model fit): 71 ± 3 µmol/min/mg
  α versus malate: 1.43
CjMQO [2]; malate varied
  K i versus malate: 100 nM
CjMQO [2]; malate varied, UQ1 fixed, listed as embelin
  Inhibition type versus malate: mixed-type
Human fibroblasts
  IC50: 739000 nM

## CC(C)=CCC/C(C)=C/CC/C(C)=C/Cc1c(O)c2ccccc2oc1=O [Ferulenol, ferulenol]
C. jejuni ATCC29428
  IC50: 600 nM
[3]
  IC50: 50200 nM
[1]
  IC50: 18 nM
CjMQO [2]; UQ1 varied, malate fixed
  K m (apparent, mixed-model fit): 42 ± 5 µM
  V max (apparent, mixed-model fit): 133 ± 7 µmol/min/mg
  α versus UQ1 (quinone): 1.04
  Inhibition type versus UQ1 (quinone): noncompetitive
CjMQO [2]; UQ1 varied
  K i versus UQ1: 20 nM
CjMQO [2]; malate varied, UQ1 fixed
  Inhibition type versus malate: Mixed
  K m (apparent, mixed-model fit): 1,845 ± 201 μM
  V max (apparent, mixed-model fit): 70 ± 2 µmol/min/mg
  α versus malate: 2.66
CjMQO [2]; malate varied
  K i versus malate: 10 nM
CjMQO [2]; malate varied, UQ1 fixed, listed as ferulenol
  Inhibition type versus malate: mixed-type
TgMQO [4]
  IC50: 822 nM
[5]
  IC50: 57 nM
Human dermal fibroblast
  IC50: 65800 nM
[6]
  IC50: 50100 nM

## O=C(O)CC(O)C(=O)O (stereo not drawn) [Malate, sodium malate]
PfMQO
  K m of PfMQO for malate: 5,990 μM
CjMQO [7]; UQ0 fixed (100 μM)
  K m for malate: 298 ± 18 µM
CjMQO [7]; UQ0 fixed (100 μM), listed as malate
  K m for malate: 298 µM
CjMQO [7]; UQ1 fixed (100 μM)
  K m for malate: 882 ± 49 µM
CjMQO [7]; UQ1 fixed (100 μM), listed as malate
  K m for malate: 882 µM
CjMQO [7]; UQ2 fixed (10 μM)
  K m for malate: 1,031 ± 93 μM
CjMQO [7]; UQ2 fixed (10 μM), listed as malate
  K m for malate: 1,031 μM
CjMQO [7]; dUQ fixed (10 μM)
  K m for malate: 1,209 ± 160 μM
CjMQO [7]; dUQ fixed (10 μM), listed as malate
  K m for malate: 1,209 μM
TgMQO [8]; in the presence of UQ1
  K m of TgMQO for malate: 370 µM
TgMQO [8]; in the presence of UQ2
  K m of TgMQO for malate: 637 µM
TgMQO [8]; in the presence of dUQ
  K m of TgMQO for malate: 466 µM

## COC1=C(OC)C(=O)C(C)=CC1=O [UQ0]
CjMQO [7]
  V max: 49 µmol/min/mg and 49.0 ± 2.4 µmol/min/mg
  k cat: 219 ± 13.1 s⁻¹
  k cat /K m: 1.3e+06 M⁻¹ s⁻¹
  K m for ubiquinone: 168 µM and 168 ± 12.0 µM
TgMQO [8]
  K m of TgMQO for ubiquinone: 225 µM
  V max of TgMQO for ubiquinone: 13 µmol/min/mg

## COC1=C(OC)C(=O)C(CC=C(C)C)=C(C)C1=O [UQ1]
CjMQO [7]
  K m for ubiquinone: 46 µM and 46.0 ± 3.1 µM
TgMQO [8]
  K m of TgMQO for ubiquinone: 116 µM
  V max of TgMQO for ubiquinone: 44 µmol/min/mg

## COC1=C(OC)C(=O)C(C/C=C(\C)CCC=C(C)C)=C(C)C1=O [UQ2]
CjMQO [7]
  V max: 108 µmol/min/mg and 108 ± 10 µmol/min/mg
  k cat: 485 ± 42.0 s⁻¹
  k cat /K m: 1.07e+08 M⁻¹ s⁻¹
  K m for ubiquinone: 4.6 µM and 4.60 ± 1.0 µM

## COC1=C(OC)C(=O)C(C/C=C(\C)CC/C=C(\C)CC/C=C(\C)CCC=C(C)C)=C(C)C1=O [UQ4]
CjMQO [7]
  V max: 10 µmol/min/mg and 10.0 ± 1.0 µmol/min/mg
  k cat: 43.9 ± 11.4 s⁻¹
  k cat /K m: 5.3e+07 M⁻¹ s⁻¹
  K m for ubiquinone: 0.8 µM and 0.80 ± 0.2 µM
CjMQO [7]; possibly due to low solubility in the assay condition
  Concentration above which substrate inhibition was observed: > 2 µM

## CCCCCCCCCCC1=C(C)C(=O)C(OC)=C(OC)C1=O [dUQ, decylubiquinone]
CjMQO [7]
  K m for ubiquinone: 8.5 µM and 8.50 ± 2.0 µM
TgMQO [8]
  K m of TgMQO for ubiquinone: 17 µM
  V max of TgMQO for ubiquinone: 12 µmol/min/mg

B1: CjMQO (Campylobacter jejuni subsp. jejuni NCTC 11168 = ATCC 700819) (protein)
chain: MSQQEFDVLVIGAGISGAALFYELARYTNIKNIALIEKYNTAATLNSKGTSNSQTIHCGDIETNYTLEKARKVKRTADMIVKYGLMQNAQNNFMFSHQKMALAVGDIECDYMKKRYEEFKELYPYIKFFDKAKIKQIEPKVVLGEDCNQDRPENICAMGVESGEVFTTVDFGKMSINLIEQAQKQNKNTFVAFNQEIIHIEKKDDIFILKTSNHQEYHAKSVVVNAGAHSLYLAHKMNLGMDKSCWPVAGSFYLTKQKLLNGKVYMVQNPKLPFAALHGDPDLLADMNTRFGPTALVIPKLERYHGLKSVPEFFEALKLDKTVLKVTFNMFKDATIRNYIFYNYLFELPFVDKSLFVKDAKKIVPSLKASDIYYAKGFGGVRPQVIDKTKGELMLGEASITETPGIIFNMTPSPGATSCLGNAERDAKLVCNYLGMEFNEDKFSSELL
[9]; [12]
  kcat: 480 ± 18.7 s⁻¹
  kcat/Km: 1.05e+07 M⁻¹ s⁻¹
[9]; other: malate fixed at 0.5 mM
  Km: 16.3 µM
[9]; other: malate fixed at 2 mM
  Km: 23.8 µM
[9]; other: malate fixed at 10 mM
  Km: 32.6 µM
[10]; UQ0 fixed (100 μM)
  kcat: 67 ± 1.1 s⁻¹
  kcat/Km: 200000 M⁻¹ s⁻¹
[10]; UQ1 fixed (100 μM)
  kcat: 502 ± 55.6 s⁻¹
  kcat/Km: 600000 M⁻¹ s⁻¹
[10]; UQ2 fixed (10 μM)
  kcat: 389 ± 7.6 s⁻¹
  kcat/Km: 400000 M⁻¹ s⁻¹
[10]; dUQ fixed (10 μM)
  kcat: 210 ± 19.2 s⁻¹
  kcat/Km: 200000 M⁻¹ s⁻¹
[11]
  kcat: 343 ± 40.4 s⁻¹
  kcat/Km: 4.02e+07 M⁻¹ s⁻¹
